Results: publication PMC9600589, “The Heptaprenyl Diphosphate Synthase (Coq1) Is the Target of a Lipophilic Bisphosphonate That Protects Mice against Toxoplasma gondii Infection” (mBio, 2022)
Read-outs that look alike come from different tables or passages of the source.

Experiments:
recombinant TgCoq1 [1] = target: T1, recombinant TgCoq1 (Toxoplasma gondii, UniProt S8EY63); experiment: Kinetic parameters of recombinant TgCoq1 with allylic substrates ([4-14C]IPP incorporation); format: biochemical; details: allylic substrate varied, counter substrate IPP (100 μM)
T1 sequence (S8EY63 152-676): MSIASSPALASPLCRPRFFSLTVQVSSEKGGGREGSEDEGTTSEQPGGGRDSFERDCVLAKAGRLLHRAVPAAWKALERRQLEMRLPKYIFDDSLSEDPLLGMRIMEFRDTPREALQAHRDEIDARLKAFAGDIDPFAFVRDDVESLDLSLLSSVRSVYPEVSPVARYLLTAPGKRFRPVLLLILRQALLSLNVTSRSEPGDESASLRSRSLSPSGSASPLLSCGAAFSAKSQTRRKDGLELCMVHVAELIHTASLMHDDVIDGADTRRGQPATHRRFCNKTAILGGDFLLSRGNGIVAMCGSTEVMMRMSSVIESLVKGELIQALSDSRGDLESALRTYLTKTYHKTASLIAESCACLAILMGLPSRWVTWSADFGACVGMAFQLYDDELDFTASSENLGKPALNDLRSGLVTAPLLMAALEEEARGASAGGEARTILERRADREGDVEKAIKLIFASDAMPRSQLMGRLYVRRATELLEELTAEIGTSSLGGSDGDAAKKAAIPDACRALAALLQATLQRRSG
Experimental: (§1) To investigate the biochemical function of TgCoq1, we cloned the TGGT1_269430 gene in an E. coli expression plasmid, which also includes a C-terminal polyhistidine tag to facilitate the purification of the recombinant protein by affinity chromatography. The activity of the purified protein was determined using allylic substrates and cosubstrates, by measuring the amount of [4-^14C]IPP incorporated into butanol-extractable polyprenyl diphosphates (FPP and GGPP) (Fig. 2A). […] A parallel experiment with the already characterized recombinant Trypanosoma cruzi solanesyl diphosphate synthase ([26]), TcSPPS, known to synthesize a 45-carbon product, is shown in the same TLC (Fig. 2B). With the use of a standard enzymatic method ([26]), the kinetic parameters of the reaction were obtained using various concentrations of the allylic substrates (GPP, FPP, GGPP, and IPP) and keeping the concentration of counter substrates at a saturating level (Table 1). Under these experimental conditions, the enzyme was more efficient with FPP than with GGPP (Fig. 2C) or GPP as the substrate (Table 1).
(§2) Kinetic parameters for the recombinant TgCoq1 were calculated from the activity obtained by varying the concentration of the allylic substrates (GPP, FPP, GGPP, and IPP) and keeping the concentration of counter substrates at a saturating level. The nonlinear regression analysis in Sigma plot 10.0 was used to calculate the Kinetic parameters.
(§3) For the enzymatic activity, a standard protocol for medium/long-chain prenyl diphosphate synthase was followed as described previously ([26]). The enzyme activity was measured by assessing the amount of [4-^14C]IPP incorporated into butanol-extractable polyprenyl diphosphates. The standard assay mixture contained, in a final volume of 100 μl, Tris-HCl (100 mM, pH 7.4), 100 μM of any of the allylic substrates FPP/GGPP/GPP, 1 mM MgCl2, 1 mM DTT, 1% vol/vol Triton X-100, 100 μM [4-^14C]-IPP (1 μCi/μMol), and 500 ng of purified protein. Reaction mixtures were incubated at 37°C for 30 min unless otherwise indicated. The radioactive prenyl products were extracted with 1-butanol and washed with NaCl-saturated water, and activities were calculated from the DPM values.

hTERT cells = experiment: Cytotoxicity to hTERT cells (alamarBlue); details: hTERT cells
Experimental: The cytotoxicity was tested using an alamarBlue assay as described by Recher et al. ([67]).

recombinant TgCoq1 [2] = target: T1, recombinant TgCoq1; experiment: biochemical
recombinant TgFPPS = recombinant TgFPPS (Toxoplasma gondii, UniProt Q197X6); experiment: biochemical
Sequence of recombinant TgFPPS (Q197X6 entry or part of it): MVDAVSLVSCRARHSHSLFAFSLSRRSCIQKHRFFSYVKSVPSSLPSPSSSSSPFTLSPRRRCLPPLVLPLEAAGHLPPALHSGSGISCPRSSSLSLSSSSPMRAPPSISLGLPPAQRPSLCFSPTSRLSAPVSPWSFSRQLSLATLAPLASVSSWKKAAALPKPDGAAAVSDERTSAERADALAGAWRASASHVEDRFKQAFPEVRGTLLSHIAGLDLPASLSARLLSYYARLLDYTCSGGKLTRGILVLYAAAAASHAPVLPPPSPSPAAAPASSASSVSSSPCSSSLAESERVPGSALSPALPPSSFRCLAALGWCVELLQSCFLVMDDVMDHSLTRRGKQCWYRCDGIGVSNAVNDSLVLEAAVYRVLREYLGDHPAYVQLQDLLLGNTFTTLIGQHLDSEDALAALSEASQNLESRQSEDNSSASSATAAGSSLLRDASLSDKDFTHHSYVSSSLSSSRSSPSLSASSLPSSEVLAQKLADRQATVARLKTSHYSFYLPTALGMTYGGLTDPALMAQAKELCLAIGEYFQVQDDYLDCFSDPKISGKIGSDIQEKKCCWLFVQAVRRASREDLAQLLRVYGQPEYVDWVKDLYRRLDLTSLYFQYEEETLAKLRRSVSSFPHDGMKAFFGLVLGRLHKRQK

T. gondii RH = experiment: In vitro growth inhibition of RFP-expressing tachyzoites in hTERT fibroblasts; format: cell-based, Toxoplasma gondii; details: for IC50 / EC50: Toxoplasma gondii, Fibroblast; for IC50: T. gondii growth in vitro; for rescue of growth inhibition by UQ6: 10 μM UQ6 added to the culture; for EC50: T. gondii RH
Experimental: (§4) Experiments on T. gondii tachyzoites were carried out using parasites expressing red fluorescent protein (RFP) ([66]) with the modification described by Recher et al. ([67]). Tachyzoites were maintained in human fibroblasts (hTERT cells). For drug testing and growth assays, parasites were purified by passing them through a 25-gauge needle, followed by filtration through a 3-μm filter. Human fibroblasts were cultured in 96-well black-sided plates for 24 h before the addition of 4,000 fluorescent tachyzoites/well. […] The EC50s were calculated using Prism software. The UQ6 experiments were performed using the same protocol as described above. The parasites were supplemented with 10 μM UQ6.

[3] = system: T. gondii iΔCoq1 (+ATc) mutant; experiment: Rescue of the growth defect of the iΔCoq1 (+ATc) mutant by ubiquinones; format: cell-based, Toxoplasma gondii
Experimental: To further validate the role of TgCoq1 in the synthesis of ubiquinone, we tested if supplementing cultures of the iΔCoq1 (+ATc) mutant with various ubiquinones would rescue the growth defect (Fig. 7). Because UQ7 is not commercially available, we tested UQ6, UQ8, and UQ10 and observed a remarkable rescue of the growth of the iΔCoq1 (+ATc) mutant by UQ6 (Fig. 7A).
Experiments on T. gondii tachyzoites were carried out using parasites expressing red fluorescent protein (RFP) ([66]) with the modification described by Recher et al. ([67]). Tachyzoites were maintained in human fibroblasts (hTERT cells). For drug testing and growth assays, parasites were purified by passing them through a 25-gauge needle, followed by filtration through a 3-μm filter. Human fibroblasts were cultured in 96-well black-sided plates for 24 h before the addition of 4,000 fluorescent tachyzoites/well. Fluorescence values were measured for up to 9 days, and both excitation (544 nm) and emission (590 nm) were read from the bottom of the plates in a Molecular Devices plate reader ([46]). The EC50s were calculated using Prism software. The UQ6 experiments were performed using the same protocol as described above. […]

[4] = system: T. gondii parental strain (TatiΔku80); experiment: Growth inhibition of the parental strain; format: cell-based; details: Toxoplasma gondii, read-out: EC50 (TatiΔku80)
Experimental: (§5) Previous work has shown that bisphosphonates can target several enzymes of the isoprenoid biosynthesis pathway, including the farnesyl diphosphate synthase (FPPS), which synthesizes FPP, the preferred substrate of TgCoq1 ([14]). […] We further determined specificity against TgCoq1, by comparing the growth inhibition of the compound against a parental strain (TatiΔku80) versus a cell line overexpressing TgCoq1 (TgCoq1-OE).
as §4

[5] = system: T. gondii TgCoq1-OE strain; experiment: Growth inhibition of the TgCoq1 overexpressing strain; format: cell-based; details: Toxoplasma gondii, read-out: EC50 TgCoq1-OE strain
Experimental: as §5, §4

[6] = substrate: C=C(C)CCO[P@@](=O)(O)OP(=O)(O)O; experiment: Kinetic parameters of recombinant TgCoq1 with allylic substrates ([4-14C]IPP incorporation); format: biochemical, Toxoplasma gondii; details: pH 7.4, 37.0 °C
Experimental: as §1, §2, §3

[7] = substrate: CC(C)=CCC/C(C)=C/CC/C(C)=C/CO[P@@](=O)(O)OP(=O)(O)O; experiment: as above; format: biochemical, Toxoplasma gondii; details: other: allylic substrate varied, counter substrate IPP (100 μM); pH 7.4; 37.0 °C
Experimental: as §1, §2, §3

[8] = at 4X EC50 (concentration in μM in brackets)
[9] = at 10X EC50 (concentration in μM in brackets)
[10] = other: counter substrate FPP (100 μM)
[11] = other: counter substrate GGPP (50 μM)
[12] = other: counter substrate GPP (150 μM)

Molecule: CC(C)=CCC/C(C)=C/CC/C(C)=C/CC/C(C)=C/COP(=O)(O)OP(=O)(O)O [GGPP, geranylgeranyl diphosphate]
- Kcat (recombinant TgCoq1 [1]): 0.00275 ± 8.3e-05 s⁻¹
- Km (recombinant TgCoq1 [1]): 14.1 ± 1.43 µM
- Vmax (recombinant TgCoq1 [1]): 82.98 ± 2.51 nmol/min/mg

Molecule: CCCCCCCCCCCn1cc[n+](CC(O)(P(=O)([O-])O)P(=O)(O)O)c1 (stereo not drawn) [BPH-1236]
- % Inhibition (cytotoxicity) (hTERT cells; [8]): 4.13 ± 1.20%
- % Inhibition (cytotoxicity) (hTERT cells; [9]): 9.10 ± 2.38%

Molecule: CCCCCCCCCCCCCCCn1cc[n+](CC(O)(P(=O)([O-])O)P(=O)(O)O)c1 (stereo not drawn) [BPH-1325]
- IC50 (recombinant TgCoq1 [2]): 1690 ± 460 nM
- IC50 (recombinant TgFPPS): 700 ± 60 nM
- IC50 (T. gondii RH): 1650 ± 890 nM

Molecule: CCCCCCCCCn1cc[n+](CC(O)(P(=O)([O-])O)P(=O)(O)O)c1 (stereo not drawn) [BPH-1238]
- % Inhibition (cytotoxicity) (hTERT cells; [8]): 9.77 ± 1.18%
- % Inhibition (cytotoxicity) (hTERT cells; [9]): 13.37 ± 6.08%

Molecule: Cc1[nH]c2c(c(=O)c1-c1ccc(Oc3ccc(OC(F)(F)F)cc3)cc1)CCCC2 [JAG-21]
- rescue of growth inhibition by UQ6 (T. gondii RH): not rescued
- EC50 (T. gondii RH; with ubiquinone Q6 (10 μM) in the culture, read-out: EC50 + UQ6): 70 ± 1 nM
- EC50 (T. gondii RH; without UQ6, read-out: EC50): 49 ± 20 nM
- % Inhibition (cytotoxicity) (hTERT cells; [8]): 6.40 ± 5.50%
- % Inhibition (cytotoxicity) (hTERT cells; [9]): 5.75 ± 4.98%

Molecule: CC(C)=CCC/C(C)=C/COP(=O)(O)OP(=O)(O)O [GPP, geranyl diphosphate]
- Kcat (recombinant TgCoq1 [1]): 0.0002 ± 1.7e-05 s⁻¹
- Km (recombinant TgCoq1 [1]): 0.88 ± 0.6 µM
- Vmax (recombinant TgCoq1 [1]): 6.16 ± 0.45 nmol/min/mg

Molecule: COC1=C(OC)C(=O)C(C/C=C(\C)CC/C=C(\C)CC/C=C(\C)CC/C=C(\C)CC/C=C(\C)CC/C=C(\C)CC/C=C(\C)CCC=C(C)C)=C(C)C1=O [UQ8, ubiquinone 8]
- rescue of growth of the iΔCoq1 mutant with ATc ([3]; 5 μM ubiquinone): no rescue

Molecule: CC(C)=CCC/C(C)=C/CNCCNC1C2CC3CC(C2)CC1C3 (stereo not drawn) [SQ109]
- EC50 [4]: 1730 ± 380 nM
- EC50 [5]: 1800 ± 470 nM

Molecule: COC1=C(OC)C(=O)C(C/C=C(\C)CC/C=C(\C)CC/C=C(\C)CC/C=C(\C)CC/C=C(\C)CCC=C(C)C)=C(C)C1=O [UQ6, Ubiquinone Q6]
- rescue of growth of the iΔCoq1 mutant with ATc ([3]; 5 μM ubiquinone): rescue
- rescue of growth of the iΔCoq1 mutant with ATc ([3]; 10 μM ubiquinone): rescued

Molecule: CCCCCCCCC(O)(P(=O)(O)O)P(=O)(O)O [BPH-252]
- IC50 (recombinant TgCoq1 [2]): 2130 ± 520 nM
- IC50 (recombinant TgFPPS): 130 ± 50 nM
- IC50 (T. gondii RH): 850 ± 140 nM

Molecule: CCCCCCCCn1cc[n+](CC(P(=O)([O-])O)P(=O)(O)O)c1 (stereo not drawn) [BPH-1217]
- % Inhibition (cytotoxicity) (hTERT cells; [8]): 8.01 ± 1.82%
- % Inhibition (cytotoxicity) (hTERT cells; [9]): 6.19 ± 9.55%

Molecule: COC1=C(OC)C(=O)C(C/C=C(\C)CC/C=C(\C)CC/C=C(\C)CC/C=C(\C)CC/C=C(\C)CC/C=C(\C)CC/C=C(\C)CC/C=C(\C)CC/C=C(\C)CCC=C(C)C)=C(C)C1=O [UQ10, ubiquinone 10]
- rescue of growth of the iΔCoq1 mutant with ATc ([3]; 5 μM ubiquinone): no rescue

Molecule: CCCCCCCCCCCCCCn1cc[n+](CC(P(=O)([O-])O)P(=O)(O)O)c1 (stereo not drawn) [BPH-1219]
- % Inhibition (cytotoxicity) (hTERT cells; [8]): 3.20 ± 2.89%
- % Inhibition (cytotoxicity) (hTERT cells; [9]): 8.01 ± 1.82%

Molecule: O=C1C(O)=C([C@H]2CC[C@H](c3ccc(Cl)cc3)CC2)C(=O)c2ccccc21 [Atovaquone]
- rescue of growth inhibition by UQ6 (T. gondii RH): modest rescue
- EC50 [4]: 30 ± 10 nM
- EC50 [5]: 40 ± 10 nM

B1: recombinant TgCoq1 (Toxoplasma gondii ME49) (protein)
chain: MSIASSPALASPLCRPRFFSLTVQVSSEKGGGREGSEDEGTTSEQPGGGRDSFERDCVLAKAGRLLHRAVPAAWKALERRQLEMRLPKYIFDDSLSEDPLLGMRIMEFRDTPREALQAHRDEIDARLKAFAGDIDPFAFVRDDVESLDLSLLSSVRSVYPEVSPVARYLLTAPGKRFRPVLLLILRQALLSLNVTSRSEPGDESASLRSRSLSPSGSASPLLSCGAAFSAKSQTRRKDGLELCMVHVAELIHTASLMHDDVIDGADTRRGQPATHRRFCNKTAILGGDFLLSRGNGIVAMCGSTEVMMRMSSVIESLVKGELIQALSDSRGDLESALRTYLTKTYHKTASLIAESCACLAILMGLPSRWVTWSADFGACVGMAFQLYDDELDFTASSENLGKPALNDLRSGLVTAPLLMAALEEEARGASAGGEARTILERRADREGDVEKAIKLIFASDAMPRSQLMGRLYVRRATELLEELTAEIGTSSLGGSDGDAAKKAAIPDACRALAALLQATLQRRSG
- Km [6, 10]: 139.11 ± 17.68 µM
- kcat/Km [6, 10]: 134 M⁻¹ s⁻¹
- Km [6, 11]: 141.89 ± 35.75 µM
- kcat/Km [6, 11]: 87.5 M⁻¹ s⁻¹
- Km [6, 12]: 145.48 ± 1.18 µM
- kcat/Km [6, 12]: 6.5 M⁻¹ s⁻¹
- Km [7]: 12.37 ± 1.83 µM
- kcat/Km [7]: 609 M⁻¹ s⁻¹
